According to PMC7551886, “Antitumour Effects of Astaxanthin and Adonixanthin on Glioblastoma” (Marine Drugs, 2020):

What was measured:
Assay type in all cases: cell-based, mouse
Bcl-2 = experiment: Immunoblotting, Bcl-2 expression in GL261; details: GL261, 300 µM, 48 h
Procedure: (§1) GL261 cell was seeded at 2.5 × 10^4 cells per well in 24-well plates with culture medium supplemented with 10% FBS. After 24 h of incubation, the medium was changed to DMEM containing 10% FBS and 0.1%DMSO PBS, 300 μM temozolomide, 10 μM astaxanthin, or 10 μM adonixanthin was added for 6 and 48 h. Cells were lysed in a special buffer (RIPA buffer R0278; Sigma-Aldrich, St. Louis, MO, USA) with a protease inhibitor cocktail (Sigma-Aldrich), phosphatase inhibitor cocktails 2 and 3 (Sigma-Aldrich), and sample buffer (Wako, Osaka, Japan). The protein concentration was determined by comparison with a known concentration of bovine serum albumin using the BCA Protein Assay Kit (Thermo Fisher Scientific). The amount of total protein was 2 μg. Equal amounts of protein in sample buffer containing 10% 2-mercaptoethanol were subjected to sodium dodecyl sulphate polyacrylamide gel electrophoresis (SDS-PAGE) in 5-20% gradient gels (SuperSep Ace; Wako), and the separated proteins were transferred to polyvinylidene difluoride membrane (Immobilon-P; Merck Millipore Corporation, Bedford, MA, USA). After blocking for 30 min with Blocking One-P (Nacalai Tesque), we incubated the membranes with primary antibodies overnight at 4 °C. […] The band intensity was […] an Immuno Star LD (Wako). Band intensity was measured using an LAS-4000 UV mini Luminescent Image Analyzer (Fujifilm, Tokyo Japan) and Multi Gauge Version 3.0 (Fujifilm). The phosphorylation of ERK1/2, Akt, and p38 MAPK was measured by normalizing against total ERK1/2, total Akt, and total p38 MAPK. […]

p27 = experiment: Immunoblotting, p27 expression in GL261; details: GL261, 300 µM temozolomide, 48 h
Procedure: as §1

GL261 cells = experiment: BrdU cell proliferation assay; details: GL261, temozolomide group (concentration not printed for this test); control group 60.56 ± 1.40%
Procedure: GL261 cells were seeded onto 96-well plates at a density of 2 × 10^3 cells/well with DMEM supplemented with 10% FBS and then incubated for 24 h, after which the culture medium was changed to DMEM containing 10% FBS. Then, astaxanthin, adonixanthin, or temozolomide (Tokyo Chemical Industry Co., Ltd., Tokyo, Japan) were added to the culture. After 72 h of culture, the culture medium was changed to DMEM containing 10% FBS and treated with BrdU at 10 µM for 3 h. After that, immunocytochemistry was performed according to the protocol of anti-BrdU antibody (abcam, ab6326).

Cn1nnc2c(C(N)=O)ncn2c1=O [temozolomide, reference compound]
expression of Bcl-2 vs. control (Bcl-2): N.S.
expression of p27 (p27): significantly reduced
BrdU-positive cell rate (GL261 cells): 19.17 ± 1.77%
